Text: Component (c1-1) is preferably in a state that it is soluble in the allergen-removing agent.

solubility in component (a): ≥ 5 g/100 g
solubility in water: ≤ 0.3 g/100 g
Compound: CCCCCCCCCCCCCCCCO [palmityl alcohol]
